# Assay results taken from ChEMBL document CHEMBL1201862, “PubChem BioAssay data set” (2004).
# The source made the active and inactive calls.
# Columns and labels:
# [1] = biological target: Polyadenylate-binding protein 1 (Homo sapiens, UniProt P11940); test: blockers of PABP interaction with poly(A) – biochemical, fluorescence polarization, […] (AID 2014)
# [2] = biological target: Eukaryotic translation initiation factor 4H (Homo sapiens, UniProt Q15056); test: eIF4H binding inhibition – biochemical, uHTS, fluorescence polarization, translation initiation inhibitor project, primary screen (AID 2012)
# [3] = test system: INS1; test: INS-1E survival protection against cytokine death – cell-based, luminescence, retest, dose response (AID 449756); assay type: functional; details: Rattus norvegicus;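 further: cell death triggered by IL-1 beta plus TNF-alpha plus IFN-gamma mixture; protective hits raise ATP signal compared with cytokine alone wells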
# [4] = test system: Streptococcus; test: GAS UMAA2166 growth inhibition – luminescence, BacTiterGlo, counter-screen for streptokinase expression inhibitor project, dose response (AID 1915); assay type: functional, organism-based;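 further: potency for reduction of bacterial viability or growth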
# [5] = test system: Streptococcus sp. 'group A'; test: Streptococcus pyogenes SK(-)GAS viability under kanamycin – luminescence, BacTiterGlo, confirmation, counter-screen for streptokinase expression inhibitor project, dose response (AID 1900); assay type: functional, organism-based
# [6] = NIH3T3 cell viability loss – ATP luminescence, mouse fibroblasts, counter-screen, dose response (AID 2010); assay type: functional, cell-based;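 further: cells exposed to compound for about 90 hours before reading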
# [7] = biological target: T1, Kappa-type opioid receptor (Homo sapiens, UniProt P41145); assay type: functional
# [8] = biological target: Heat shock protein HSP 90-alpha (Homo sapiens, UniProt P07900); assay type: functional, organism-based
# [9] = biological target: Beta-galactosidase (Escherichia coli, UniProt Q8VNN2); assay type: functional
# [10] = biological target: T2, Streptokinase A (Streptococcus pyogenes serotype M1, UniProt P10520); test: viability-normalized secreted streptokinase activity reduction – plasminogen activation absorbance, OD405, dose response (AID 1914); assay type: functional, Streptococcus pyogenes M1 GAS;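 further: secreted streptokinase activity via plasminogen activation per viability signal from cell pellet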
# T2 sequence (P10520 whole entry): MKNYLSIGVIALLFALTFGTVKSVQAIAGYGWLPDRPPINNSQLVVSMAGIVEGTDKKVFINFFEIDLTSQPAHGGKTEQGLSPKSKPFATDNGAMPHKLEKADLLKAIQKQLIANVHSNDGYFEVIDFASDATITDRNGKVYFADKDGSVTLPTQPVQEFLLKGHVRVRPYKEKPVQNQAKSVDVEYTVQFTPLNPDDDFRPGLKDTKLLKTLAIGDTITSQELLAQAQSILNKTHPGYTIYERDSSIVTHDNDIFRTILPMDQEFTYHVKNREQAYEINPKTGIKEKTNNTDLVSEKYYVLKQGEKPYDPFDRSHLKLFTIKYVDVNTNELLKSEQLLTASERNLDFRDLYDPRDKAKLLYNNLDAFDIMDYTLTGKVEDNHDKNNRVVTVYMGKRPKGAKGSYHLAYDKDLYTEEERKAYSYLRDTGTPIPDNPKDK
# [11] = Trypanosoma cruzi growth suppression in host cells – NIH3T3 host cells, beta-gal luminescence, confirmation (AID 2044); assay type: functional, cell-based;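 further: intracellular parasites grown in NIH/3T3 mouse fibroblasts as host cells; luminescent beta-galactosidase reporter signal from transgenic T. cruzi replicating inside host cells; inhibitors lower the luminescence signal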
# [12] = biological target: T1, Kappa-type opioid receptor; assay type: functional; remark: listed apart in the source
# [13] = biological target: T3, RNA-binding protein pos-1 (Caenorhabditis elegans, UniProt G5EF15); test: disruptors of C. elegans POS-1 RNA interaction – biochemical, fluorescence polarization, dose response (AID 1964);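 further: purified POS-1 fused to maltose binding protein made in E. coli; potency of compounds blocking POS-1 binding to fluorescent RNA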
# T3 sequence (G5EF15 whole entry): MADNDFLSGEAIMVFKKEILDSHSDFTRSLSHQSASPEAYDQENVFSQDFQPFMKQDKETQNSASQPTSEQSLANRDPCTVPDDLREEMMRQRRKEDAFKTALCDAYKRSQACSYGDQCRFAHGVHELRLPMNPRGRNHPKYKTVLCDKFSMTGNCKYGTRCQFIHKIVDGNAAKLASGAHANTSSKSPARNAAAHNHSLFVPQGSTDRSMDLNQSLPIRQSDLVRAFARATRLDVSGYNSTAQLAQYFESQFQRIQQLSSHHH
# [14] = biological target: Large T antigen (Simian virus 40, UniProt P03070); assay type: functional, Betapolyomavirus macacae;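 further: Confirmatory-stage PubChem screen for compounds that inhibit SV40 T antigen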
# [15] = biological target: Induced myeloid leukemia cell differentiation protein Mcl-1 (Homo sapiens, UniProt Q07820); assay type: functional
# [16] = biological target: T4, Zinc finger protein mex-5 (Caenorhabditis elegans, UniProt Q9XUB2); test: potency of MEX-5 RNA-binding blockers – biochemical, C. elegans, fluorescence polarization, dose response (AID 1960)
# T4 sequence (Q9XUB2 whole entry): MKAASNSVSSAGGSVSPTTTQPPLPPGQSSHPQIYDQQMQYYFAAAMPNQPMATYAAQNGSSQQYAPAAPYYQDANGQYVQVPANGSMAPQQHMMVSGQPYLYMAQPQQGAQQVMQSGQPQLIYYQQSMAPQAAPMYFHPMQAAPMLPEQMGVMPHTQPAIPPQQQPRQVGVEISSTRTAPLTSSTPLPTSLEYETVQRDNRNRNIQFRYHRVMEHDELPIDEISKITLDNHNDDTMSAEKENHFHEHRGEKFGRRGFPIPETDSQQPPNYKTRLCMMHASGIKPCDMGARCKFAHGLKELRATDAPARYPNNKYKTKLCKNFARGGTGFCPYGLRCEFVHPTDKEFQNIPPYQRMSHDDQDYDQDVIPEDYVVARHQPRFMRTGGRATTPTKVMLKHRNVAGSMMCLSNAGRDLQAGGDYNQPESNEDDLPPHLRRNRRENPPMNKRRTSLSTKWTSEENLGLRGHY
# [17] = biological target: T5, Aminopeptidase N (Plasmodium falciparum FcB1/Columbia, UniProt O96935); test: malaria alanyl aminopeptidase activity blockers – biochemical, fluorogenic H-Leu-NHMec substrate, 1536-well (AID 1445); set-up: species or system Plasmodium falciparum 3D7, 3D7
# T5 sequence (O96935 whole entry): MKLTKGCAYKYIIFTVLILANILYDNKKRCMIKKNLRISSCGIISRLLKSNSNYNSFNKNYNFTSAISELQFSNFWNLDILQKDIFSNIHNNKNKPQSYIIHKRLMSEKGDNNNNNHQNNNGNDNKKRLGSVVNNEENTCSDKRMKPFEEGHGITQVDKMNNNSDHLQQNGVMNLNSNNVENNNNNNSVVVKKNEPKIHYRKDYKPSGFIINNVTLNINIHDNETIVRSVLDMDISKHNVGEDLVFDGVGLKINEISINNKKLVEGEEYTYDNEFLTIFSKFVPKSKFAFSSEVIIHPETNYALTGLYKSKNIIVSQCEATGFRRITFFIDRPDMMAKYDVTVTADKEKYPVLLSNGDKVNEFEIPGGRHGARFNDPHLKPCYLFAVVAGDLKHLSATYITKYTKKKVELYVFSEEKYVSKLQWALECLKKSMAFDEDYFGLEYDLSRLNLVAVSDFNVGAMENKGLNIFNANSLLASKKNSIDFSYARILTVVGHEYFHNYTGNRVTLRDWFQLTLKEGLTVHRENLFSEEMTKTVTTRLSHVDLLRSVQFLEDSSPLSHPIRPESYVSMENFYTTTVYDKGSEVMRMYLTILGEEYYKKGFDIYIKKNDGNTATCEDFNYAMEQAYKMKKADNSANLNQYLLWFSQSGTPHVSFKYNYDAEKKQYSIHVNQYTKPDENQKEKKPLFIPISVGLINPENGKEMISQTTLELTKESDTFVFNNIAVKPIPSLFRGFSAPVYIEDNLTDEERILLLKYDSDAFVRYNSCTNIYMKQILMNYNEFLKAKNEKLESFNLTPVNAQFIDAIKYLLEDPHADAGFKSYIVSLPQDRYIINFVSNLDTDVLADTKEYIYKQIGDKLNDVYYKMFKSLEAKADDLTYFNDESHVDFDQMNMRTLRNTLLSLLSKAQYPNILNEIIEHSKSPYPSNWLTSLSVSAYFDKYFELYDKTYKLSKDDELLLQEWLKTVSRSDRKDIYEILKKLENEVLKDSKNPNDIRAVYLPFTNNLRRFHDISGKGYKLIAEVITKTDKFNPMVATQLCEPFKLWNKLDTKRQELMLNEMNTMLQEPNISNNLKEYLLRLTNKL
# [18] = biological target: T6, Microphthalmia-associated transcription factor (Homo sapiens, UniProt O75030); test: reducers of TRPM1 reporter luminescence, concentration series – cell-based, SK-MEL-5, cherry-picked, set 3, MITF inhibitor project, dose response (AID 493073); assay type: functional;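 further: SK-MEL-5 melanoma cells with luciferase driven by the MITF target TRPM1 promoter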
# T6 sequence (O75030 whole entry): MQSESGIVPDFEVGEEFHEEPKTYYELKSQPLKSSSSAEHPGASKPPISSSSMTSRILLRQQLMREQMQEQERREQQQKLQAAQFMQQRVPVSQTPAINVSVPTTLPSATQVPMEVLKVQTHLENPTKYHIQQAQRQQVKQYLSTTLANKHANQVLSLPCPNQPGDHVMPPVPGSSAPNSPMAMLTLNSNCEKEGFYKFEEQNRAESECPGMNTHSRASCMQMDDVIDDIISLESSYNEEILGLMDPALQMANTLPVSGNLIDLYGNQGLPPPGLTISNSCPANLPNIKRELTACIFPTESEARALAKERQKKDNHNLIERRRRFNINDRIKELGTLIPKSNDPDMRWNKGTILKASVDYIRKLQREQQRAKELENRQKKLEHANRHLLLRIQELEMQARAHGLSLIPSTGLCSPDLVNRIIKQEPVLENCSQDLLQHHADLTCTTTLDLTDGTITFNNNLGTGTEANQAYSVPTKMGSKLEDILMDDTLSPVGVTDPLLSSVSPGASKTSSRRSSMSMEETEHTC
# [19] = biological target: Neurotensin receptor type 1 (Homo sapiens, UniProt P30989); assay type: functional;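 further: Image-based confirmatory dose-response assay measuring agonist activity at NTR1; NTR1-expressing U2OS osteosarcoma cells imaged for beta-arrestin GFP spot formation; agonist potency where compounds increase beta-arrestin recruitment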
# [20] = biological target: DNA dC->dU-editing enzyme APOBEC-3G (Homo sapiens, UniProt Q9HC16); test: Dose Response confirmation of small molecule APOBEC3G DNA Deaminase Inhibitors via a fluorescence-based single-stranded DNA deaminase assay. [Related pubchem assays (depositor defined):AID493012, AID493028]; assay type: functional
# [21] = biological target: DNA dC->dU-editing enzyme APOBEC-3A (Homo sapiens, UniProt P31941); test: A3A deaminase inhibition for selectivity – biochemical, dose response (AID 504722); assay type: functional
# [22] = biological target: T7, Rac GTPase-activating protein 1 (Homo sapiens, UniProt Q9H0H5); test: blockers of MgcRacGAP-driven Rac1 GTP hydrolysis – biochemical, ADP Hunter fluorescence, primary and confirmatory, confirmation (AID 624330); assay type: functional
# T7 sequence (Q9H0H5 whole entry): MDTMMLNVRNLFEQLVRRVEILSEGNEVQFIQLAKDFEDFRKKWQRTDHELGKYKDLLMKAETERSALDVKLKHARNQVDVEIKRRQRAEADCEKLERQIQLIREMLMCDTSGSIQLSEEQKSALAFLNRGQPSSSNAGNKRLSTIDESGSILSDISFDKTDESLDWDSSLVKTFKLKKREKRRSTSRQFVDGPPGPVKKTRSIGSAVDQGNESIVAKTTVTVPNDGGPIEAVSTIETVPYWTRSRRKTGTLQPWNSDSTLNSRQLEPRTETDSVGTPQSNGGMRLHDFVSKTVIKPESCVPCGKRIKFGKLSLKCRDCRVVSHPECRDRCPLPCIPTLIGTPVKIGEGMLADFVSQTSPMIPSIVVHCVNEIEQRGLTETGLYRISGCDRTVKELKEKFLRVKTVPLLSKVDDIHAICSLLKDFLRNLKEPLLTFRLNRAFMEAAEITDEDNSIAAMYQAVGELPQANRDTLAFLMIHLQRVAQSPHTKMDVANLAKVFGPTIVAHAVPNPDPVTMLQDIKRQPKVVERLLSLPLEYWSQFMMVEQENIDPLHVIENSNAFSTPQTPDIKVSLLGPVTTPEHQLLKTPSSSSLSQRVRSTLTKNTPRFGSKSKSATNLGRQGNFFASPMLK
# [23] = cells; assay type: functional
# [24] = HepG2 cell cytotoxicity, dose response, cytotoxicity control for non-replicating M. tuberculosis project (AID 489018); assay type: functional; details: Mycobacterium tuberculosis
# [25] = Vero E6 cell cytotoxicity, dose response, cytotoxicity control for non-replicating M. tuberculosis project, secondary assay (AID 492998); assay type: functional, VeroE6; details: Vero C1008
# [26] = THP-1 cell cytotoxicity, dose response, cytotoxicity control for non-replicating M. tuberculosis project (AID 489025); assay type: functional
# Polyadenylate-binding protein 1, sequence (P11940 whole entry): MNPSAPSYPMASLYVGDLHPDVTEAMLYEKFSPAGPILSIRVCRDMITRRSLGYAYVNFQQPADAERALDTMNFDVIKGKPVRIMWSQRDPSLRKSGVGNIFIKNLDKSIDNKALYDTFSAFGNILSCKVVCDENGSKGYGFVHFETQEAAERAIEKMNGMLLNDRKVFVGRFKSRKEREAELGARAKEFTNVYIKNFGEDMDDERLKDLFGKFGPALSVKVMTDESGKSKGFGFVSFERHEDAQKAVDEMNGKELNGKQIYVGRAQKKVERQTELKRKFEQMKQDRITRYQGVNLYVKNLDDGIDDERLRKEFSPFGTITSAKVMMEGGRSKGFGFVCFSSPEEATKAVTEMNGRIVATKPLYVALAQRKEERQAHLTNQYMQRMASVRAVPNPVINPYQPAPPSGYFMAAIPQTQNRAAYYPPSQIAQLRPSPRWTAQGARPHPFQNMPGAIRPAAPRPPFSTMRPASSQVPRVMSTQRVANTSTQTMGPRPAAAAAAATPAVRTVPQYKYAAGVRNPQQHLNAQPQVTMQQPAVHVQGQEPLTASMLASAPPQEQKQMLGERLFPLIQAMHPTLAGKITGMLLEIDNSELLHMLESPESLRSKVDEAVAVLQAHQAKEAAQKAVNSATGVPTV
# T1 sequence (P41145 whole entry): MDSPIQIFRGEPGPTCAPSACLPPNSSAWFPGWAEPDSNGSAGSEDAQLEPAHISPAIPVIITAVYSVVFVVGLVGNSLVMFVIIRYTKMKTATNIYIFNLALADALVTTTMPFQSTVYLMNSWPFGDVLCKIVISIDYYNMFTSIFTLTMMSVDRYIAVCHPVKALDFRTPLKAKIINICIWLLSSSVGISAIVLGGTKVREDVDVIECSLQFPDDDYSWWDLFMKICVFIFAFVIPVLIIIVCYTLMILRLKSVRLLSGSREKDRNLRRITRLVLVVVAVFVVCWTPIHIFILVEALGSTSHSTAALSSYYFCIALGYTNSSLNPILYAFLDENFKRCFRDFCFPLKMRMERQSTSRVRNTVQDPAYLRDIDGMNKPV
# DNA dC->dU-editing enzyme APOBEC-3A, sequence (P31941 whole entry): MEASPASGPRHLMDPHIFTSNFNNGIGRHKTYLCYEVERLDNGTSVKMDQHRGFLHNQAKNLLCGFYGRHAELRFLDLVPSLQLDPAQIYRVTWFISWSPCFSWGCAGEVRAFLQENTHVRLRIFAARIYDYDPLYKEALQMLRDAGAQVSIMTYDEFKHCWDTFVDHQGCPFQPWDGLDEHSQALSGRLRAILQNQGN
# DNA dC->dU-editing enzyme APOBEC-3G, sequence (Q9HC16 whole entry): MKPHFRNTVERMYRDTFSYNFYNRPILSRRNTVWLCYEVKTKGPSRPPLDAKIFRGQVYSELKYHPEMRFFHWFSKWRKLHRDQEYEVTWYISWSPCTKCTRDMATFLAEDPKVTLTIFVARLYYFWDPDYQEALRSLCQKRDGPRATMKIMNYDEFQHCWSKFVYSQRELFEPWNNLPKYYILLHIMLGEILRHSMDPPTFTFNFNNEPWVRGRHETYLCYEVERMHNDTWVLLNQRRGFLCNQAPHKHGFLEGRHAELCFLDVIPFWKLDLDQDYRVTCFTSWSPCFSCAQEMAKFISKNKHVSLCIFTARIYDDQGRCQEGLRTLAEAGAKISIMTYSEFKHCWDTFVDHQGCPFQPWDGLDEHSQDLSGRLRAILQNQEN
# Large T antigen, sequence (P03070 whole entry): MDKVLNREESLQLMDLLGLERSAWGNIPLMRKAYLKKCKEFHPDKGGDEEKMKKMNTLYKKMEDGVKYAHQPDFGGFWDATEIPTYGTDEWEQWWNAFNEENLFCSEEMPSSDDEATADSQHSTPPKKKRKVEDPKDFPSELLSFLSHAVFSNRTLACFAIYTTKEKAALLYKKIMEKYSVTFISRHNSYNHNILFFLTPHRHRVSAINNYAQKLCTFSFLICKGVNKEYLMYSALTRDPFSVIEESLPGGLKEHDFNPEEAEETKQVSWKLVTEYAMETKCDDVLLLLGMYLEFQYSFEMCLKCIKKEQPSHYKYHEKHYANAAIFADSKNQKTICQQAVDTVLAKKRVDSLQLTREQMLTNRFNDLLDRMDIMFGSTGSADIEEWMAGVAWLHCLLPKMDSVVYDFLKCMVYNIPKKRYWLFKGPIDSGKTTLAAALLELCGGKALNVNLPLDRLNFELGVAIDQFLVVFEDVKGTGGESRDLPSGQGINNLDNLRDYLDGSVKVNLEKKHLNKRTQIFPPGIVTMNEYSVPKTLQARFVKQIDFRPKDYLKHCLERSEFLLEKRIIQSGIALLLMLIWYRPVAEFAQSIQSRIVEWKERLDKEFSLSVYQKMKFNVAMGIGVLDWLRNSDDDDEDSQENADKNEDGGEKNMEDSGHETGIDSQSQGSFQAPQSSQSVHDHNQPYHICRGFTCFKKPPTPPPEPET
# Beta-galactosidase, sequence (Q8VNN2 whole entry): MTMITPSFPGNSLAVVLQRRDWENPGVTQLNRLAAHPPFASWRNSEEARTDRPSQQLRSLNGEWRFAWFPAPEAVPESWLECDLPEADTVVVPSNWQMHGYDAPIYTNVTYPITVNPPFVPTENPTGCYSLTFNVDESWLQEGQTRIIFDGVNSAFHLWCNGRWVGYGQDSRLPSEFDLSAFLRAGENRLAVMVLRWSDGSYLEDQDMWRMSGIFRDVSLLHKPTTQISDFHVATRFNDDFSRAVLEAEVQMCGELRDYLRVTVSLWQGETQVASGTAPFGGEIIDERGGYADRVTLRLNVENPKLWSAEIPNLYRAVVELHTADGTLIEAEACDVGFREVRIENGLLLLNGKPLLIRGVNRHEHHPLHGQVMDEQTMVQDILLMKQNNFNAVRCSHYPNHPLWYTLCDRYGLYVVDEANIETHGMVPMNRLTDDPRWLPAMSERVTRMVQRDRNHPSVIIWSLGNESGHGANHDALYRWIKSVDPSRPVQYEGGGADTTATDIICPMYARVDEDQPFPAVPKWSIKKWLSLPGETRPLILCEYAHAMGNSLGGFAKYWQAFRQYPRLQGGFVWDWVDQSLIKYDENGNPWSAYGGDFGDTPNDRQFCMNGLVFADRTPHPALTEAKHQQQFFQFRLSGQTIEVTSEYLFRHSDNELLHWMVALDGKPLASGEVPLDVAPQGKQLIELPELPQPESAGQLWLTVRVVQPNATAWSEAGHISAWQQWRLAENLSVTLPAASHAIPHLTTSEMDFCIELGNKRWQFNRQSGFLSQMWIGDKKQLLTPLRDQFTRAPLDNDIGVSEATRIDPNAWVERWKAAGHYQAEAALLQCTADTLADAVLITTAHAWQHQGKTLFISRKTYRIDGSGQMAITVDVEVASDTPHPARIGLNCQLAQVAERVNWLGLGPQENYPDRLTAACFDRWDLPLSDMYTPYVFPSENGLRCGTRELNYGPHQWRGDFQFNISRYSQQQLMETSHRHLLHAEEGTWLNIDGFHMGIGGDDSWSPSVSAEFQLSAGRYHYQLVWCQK
# Induced myeloid leukemia cell differentiation protein Mcl-1, sequence (Q07820 whole entry): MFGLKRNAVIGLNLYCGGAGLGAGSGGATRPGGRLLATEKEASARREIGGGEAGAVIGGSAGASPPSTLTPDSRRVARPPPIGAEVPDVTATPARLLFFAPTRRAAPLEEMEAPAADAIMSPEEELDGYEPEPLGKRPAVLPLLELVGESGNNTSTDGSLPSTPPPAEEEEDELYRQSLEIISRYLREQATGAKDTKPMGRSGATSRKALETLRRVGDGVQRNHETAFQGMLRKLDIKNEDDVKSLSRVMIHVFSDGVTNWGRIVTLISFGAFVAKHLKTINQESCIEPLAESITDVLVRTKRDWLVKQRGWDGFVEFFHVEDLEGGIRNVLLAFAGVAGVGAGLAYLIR
# Neurotensin receptor type 1, sequence (P30989 whole entry): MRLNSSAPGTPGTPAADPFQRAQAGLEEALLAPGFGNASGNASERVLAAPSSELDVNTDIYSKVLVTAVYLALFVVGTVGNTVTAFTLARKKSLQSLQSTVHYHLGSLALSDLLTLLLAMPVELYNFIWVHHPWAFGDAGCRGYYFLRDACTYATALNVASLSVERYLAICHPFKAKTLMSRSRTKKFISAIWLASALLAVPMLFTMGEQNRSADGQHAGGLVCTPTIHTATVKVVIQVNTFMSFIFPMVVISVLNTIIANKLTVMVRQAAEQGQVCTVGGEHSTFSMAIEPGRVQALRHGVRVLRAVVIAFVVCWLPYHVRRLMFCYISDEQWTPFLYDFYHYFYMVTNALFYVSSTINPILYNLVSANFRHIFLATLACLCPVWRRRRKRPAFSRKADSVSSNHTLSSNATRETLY
compound,measurement,setting,value
CCN(CC)C(=O)CC(c1ccc2c(c1)OCO2)c1c(OC)cc(OC)c2ccc(=O)oc12 (stereo not given),IC50,[1],20.1 µM (active)
same,IC50,[2],10.3 µM (active)
C[N+]1=C2c3ccccc3N=CN2CC1,IC50,[1],4.47 µM (active)
same,IC50,[2],> 100 µM (inactive)
Cc1[nH]c(N=Nc2ccccc2)nc1N=Nc1ccccc1,AC50,[3],3.72 µM (active)
same,EC50,[4],> 50 µM (not active)
same,EC50,[5],3.49 µM (active)
same,EC50,[6],4.45 µM (active)
same,IC50,[7],8.4 µM (active)
same,AC50,[8],3.76 µM (active)
same,EC50,[9],17.4 µM (active)
same,EC50,[10],23.4 µM (active)
same,EC50,[11],1.12 µM (active)
same,IC50,[12],> 32 µM
Nc1cc(C(=O)O)c(N)c2c1C(=O)c1ccccc1C2=O,EC50,[13],4.27 µM (active)
same,IC50,[14],21.9 µM (active)
same,IC50,[15],3.71 µM (active)
same,EC50,[16],2.39 µM (active)
same,IC50,[17],58.9 µM (active)
CCOC(=O)/C=c1\s/c(=C\c2ccc3cc(OC)ccc3c2)c(=O)n1CC(=O)NCC1CCCO1 (stereo not given),EC50,[13],90.4 µM (active)
same,EC50,[16],> 300 µM (not active)
same,AC50,[18],5.73 µM (active)
same,EC50,[19],7.15 µM (active)
Cc1cccc(-c2nnc(S)n2/N=C/c2ccco2)c1,IC50,[20],2.1 µM (active)
same,IC50,[21],> 100 µM (inactive)
same,IC50,[22],89.6 µM (active)
Sc1nnc(-c2ccco2)n1/N=C/c1c(Cl)cccc1Cl,IC50,[20],5.03 µM (active)
same,IC50,[21],> 100 µM (inactive)
O=C(Cc1cccs1)N/N=C\c1ccc([N+](=O)[O-])s1,AC50,[3],6.28 µM (active)
same,IC50,[23],9.65 µM (active)
same,CC50,[24],17.7 µM (active)
same,CC50,[25],11.5 µM (active)
same,EC50,[6],17.5 µM (active)
same,CC50,[26],15.3 µM (active)
same,EC50,[11],0.36 µM (active)
